Data: ChEMBL document CHEMBL1137579, “Discovery of 1-[2-[(1S)-(3-dimethylaminopropionyl)amino-2-methylpropyl]-4-methylphenyl]-4-[(2R)-methyl-3-(4-chlorophenyl)-propionyl]piperazine as an orally active antagonist of the melanocortin-4 receptor for the potential treatment of cachexia” (J Med Chem, 2007)
Converted amounts (≈) assume the structure as drawn. The source made the active and inactive calls. The calls are words filed in the database; no cut-off is given here.

Columns and labels:
[1] = target: Melanocyte-stimulating hormone receptor (Homo sapiens) (UniProt Q01726); test: Displacement of [125I]NDP-MSH from human MC1R
[2] = system: Caco-2; test: Permeability across Caco-2 cell membrane; assay type: ADME, cell-based; details: human
[3] = system: Mus musculus; test: Increase in food intake in C57BL/6J mouse at 5 mg/kg on day 10; assay type: functional, organism-based; design: dose 5 mg/kg
[4] = Tmax in Sprague-Dawley rat brain at 10 mg/kg, po; assay type: ADME, organism-based; design: dose 10 mg/kg, route oral
[5] = Tmax in CD1 mouse brain at 10 mg/kg, po; assay type: ADME, organism-based; design: dose 10 mg/kg, route oral
[6] = AUC in CD1 Beagle dog at 10 mg/kg, po; assay type: ADME, organism-based, Canis lupus familiaris; design: dose 10 mg/kg, route oral; details: plasma
[7] = AUC in Beagle dog at 5 mg/kg, iv; assay type: ADME, organism-based, Canis lupus familiaris; design: dose 5 mg/kg, route intravenous; details: plasma
[8] = system: Rattus norvegicus; test: AUC in Sprague-Dawley rat brain at 10 mg/kg, po; assay type: ADME, organism-based; design: dose 10 mg/kg, route oral; details: in vivo
[9] = AUC in Sprague-Dawley rat at 10 mg/kg, po; assay type: ADME, organism-based; design: dose 10 mg/kg, route oral; details: plasma
[10] = Oral bioavailability in rhesus monkey at 10 mg/kg, po; assay type: ADME, organism-based, Macaca mulatta; details: in vivo
[11] = system: Mus musculus; test: Increase in food intake in C57BL/6J mouse at 20 mg/kg on day 11; assay type: functional, organism-based; design: dose 20 mg/kg
[12] = Cmax in CD1 mouse brain at 10 mg/kg, po; assay type: ADME, organism-based; design: dose 10 mg/kg, route oral
[13] = Cmax in rat at 5 mg/kg, iv or 10 mg/kg, po; assay type: ADME, organism-based; details: in vivo
[14] = Cmax in rhesus monkey at 10 mg/kg, po; assay type: ADME, organism-based, Macaca mulatta; design: dose 10 mg/kg, route oral; details: in vivo
[15] = system: Mus musculus; test: AUC in CD1 mouse brain at 10 mg/kg, po; assay type: ADME, organism-based; design: dose 10 mg/kg, route oral; details: in vivo
[16] = Drug level in rat brain at 10 mg/kg, po after 1 hr; assay type: ADME, organism-based; design: dose 10 mg/kg, route oral; details: read-out: Drug uptake
[17] = Ratio of drug level in brain to plasma in rat at 5 mg/kg, iv or 10 mg/kg, po after 1 hr; assay type: ADME, organism-based
[18] = AUC in […] rhesus monkey at 10 mg/kg, po; assay type: ADME, organism-based, Macaca mulatta; design: dose 10 mg/kg, route oral; details: plasma
[19] = Tmax in Beagle dog at 10 mg/kg, po; assay type: ADME, organism-based, Canis lupus familiaris; design: dose 10 mg/kg, route oral; details: in vivo, read-out: Tm
[20] = AUC in CD1 mouse at 10 mg/kg, po; assay type: ADME, organism-based; design: dose 10 mg/kg, route oral; details: plasma
[21] = Volume of distribution in rhesus monkey at 5 mg/kg, iv; assay type: ADME, organism-based, Macaca mulatta; design: dose 5 mg/kg, route intravenous; details: in vivo
[22] = AUC in rat at 10 mg/kg, po; assay type: ADME, organism-based; design: dose 10 mg/kg, route oral; details: plasma
[23] = Ratio of drug level in brain to plasma in CD1 mouse at 10 mg/kg, po; assay type: ADME, organism-based; design: dose 10 mg/kg, route oral
[24] = system: Mus musculus; test: Increase in food intake in C57BL/6J mouse at 5 mg/kg on day 11; assay type: functional, organism-based; design: dose 5 mg/kg
[25] = Dissociation constant, pKa of the compound; assay type: physicochemical
[26] = Oral bioavailability in CD1 mouse at 10 mg/kg, po; assay type: ADME, organism-based; details: in vivo
[27] = Oral bioavailability in rat at 10 mg/kg, po; assay type: ADME, organism-based; details: in vivo
[28] = system: Mus musculus; test: Increase in food intake in C57BL/6J mouse at 5 mg/kg on day 12; assay type: functional, organism-based; design: dose 5 mg/kg
[29] = Tmax in rhesus monkey at 10 mg/kg, po; assay type: ADME, organism-based, Macaca mulatta; design: dose 10 mg/kg, route oral; details: in vivo, read-out: Tm
[30] = Cmax in Beagle dog at 10 mg/kg, po; assay type: ADME, organism-based, Canis lupus familiaris; design: dose 10 mg/kg, route oral; details: in vivo
[31] = Cmax in Sprague-Dawley rat brain at 10 mg/kg, po; assay type: ADME, organism-based; design: dose 10 mg/kg, route oral
[32] = Cmax in CD1 mouse at 10 mg/kg, po; assay type: ADME, organism-based; design: dose 10 mg/kg, route oral; details: in vivo
[33] = Tmax in Sprague-Dawley rat at 10 mg/kg, po; assay type: ADME, organism-based; design: dose 10 mg/kg, route oral; details: in vivo, read-out: Tm
[34] = system: Mus musculus; test: Increase in food intake in C57BL/6J mouse at 20 mg/kg on day 12; assay type: functional, organism-based; design: dose 20 mg/kg
[35] = Volume of distribution in rat at 5 mg/kg, iv or 10 mg/kg, po; assay type: ADME, organism-based; details: in vivo
[36] = Ratio of drug level in brain to plasma in rat at 5 mg/kg, iv or 10 mg/kg, po after 4 hrs; assay type: ADME, organism-based
[37] = Volume of distribution in Beagle dog at 5 mg/kg, iv; assay type: ADME, organism-based, Canis lupus familiaris; design: dose 5 mg/kg, route intravenous; details: in vivo
[38] = Volume of distribution in CD1 mouse at 2.5 mg/kg, iv; assay type: ADME, organism-based; design: dose 2.5 mg/kg, route intravenous; details: in vivo
[39] = Oral bioavailability in Beagle dog at 10 mg/kg, po; assay type: ADME, organism-based, Canis lupus familiaris; details: in vivo
[40] = AUC in CD1 mouse at 2.5 mg/kg, iv; assay type: ADME, organism-based; design: dose 2.5 mg/kg, route intravenous; details: plasma
[41] = system: Mus musculus; test: Increase in food intake in C57BL/6J mouse at 20 mg/kg on day 10; assay type: functional, organism-based; design: dose 20 mg/kg
[42] = Aqueous solubility at pH 3.0; assay type: physicochemical; details: aqueous medium
[43] = Drug level in rat brain at 10 mg/kg, po after 4 hrs; assay type: ADME, organism-based; design: dose 10 mg/kg, route oral; details: read-out: Drug uptake
[44] = Cmax in Sprague-Dawley rat at 10 mg/kg, po; assay type: ADME, organism-based; design: dose 10 mg/kg, route oral; details: in vivo
[45] = Tmax in rat at 5 mg/kg, iv or 10 mg/kg, po; assay type: ADME, organism-based; details: in vivo
[46] = Aqueous solubility at pH 7.0; assay type: physicochemical; details: aqueous medium
[47] = Tmax in CD1 mouse at 10 mg/kg, po; assay type: ADME, organism-based; design: dose 10 mg/kg, route oral; details: in vivo, read-out: Tm
[48] = AUC in rhesus monkey at 5 mg/kg, iv; assay type: ADME, organism-based, Macaca mulatta; design: dose 5 mg/kg, route intravenous; details: plasma
[49] = Volume of distribution in rat at 2.5 mg/kg, iv or 10 mg/kg, po; assay type: ADME, organism-based; details: in vivo
[50] = Ratio of drug level in brain to plasma in rat at 2.5 mg/kg, iv or 10 mg/kg, po after 4 hrs; assay type: ADME, organism-based
[51] = Cmax in rat at 2.5 mg/kg, iv or 10 mg/kg, po; assay type: ADME, organism-based; details: in vivo
[52] = Tmax in rat at 2.5 mg/kg, iv or 10 mg/kg, po; assay type: ADME, organism-based; details: in vivo
[53] = Ratio of drug level in brain to plasma in rat at 2.5 mg/kg, iv or 10 mg/kg, po after 1 hr; assay type: ADME, organism-based
[54] = target: Melanocortin receptor 4 (Homo sapiens) (UniProt P32245); test: Activity at MC4R expressed in HEK293 cells assessed as stimulation of cAMP release at 10 uM relative to alpha-MSH; assay type: functional, cell-based
[55] = target: Cytochrome P450 3A4 (Homo sapiens, UniProt P08684); test: Inhibition of CYP3A4; assay type: ADME
[56] = Half life in rat at 2.5 mg/kg, iv or 10 mg/kg, po; assay type: ADME, organism-based; details: in vivo
[57] = Plasma clearance in rat at 5 mg/kg, iv

Sequence of Melanocortin receptor 4 (Homo sapiens) (P32245 whole entry): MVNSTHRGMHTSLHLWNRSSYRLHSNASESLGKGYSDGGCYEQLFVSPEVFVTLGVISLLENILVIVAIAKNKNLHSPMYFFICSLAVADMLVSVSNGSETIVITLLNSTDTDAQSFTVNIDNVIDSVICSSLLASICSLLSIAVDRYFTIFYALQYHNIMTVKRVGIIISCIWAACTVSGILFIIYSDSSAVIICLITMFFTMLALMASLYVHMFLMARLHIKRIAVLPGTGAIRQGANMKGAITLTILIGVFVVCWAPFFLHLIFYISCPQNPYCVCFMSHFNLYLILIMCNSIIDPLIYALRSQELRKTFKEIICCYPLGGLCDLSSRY
Sequence of Melanocyte-stimulating hormone receptor (Homo sapiens) (Q01726 whole entry, looked up): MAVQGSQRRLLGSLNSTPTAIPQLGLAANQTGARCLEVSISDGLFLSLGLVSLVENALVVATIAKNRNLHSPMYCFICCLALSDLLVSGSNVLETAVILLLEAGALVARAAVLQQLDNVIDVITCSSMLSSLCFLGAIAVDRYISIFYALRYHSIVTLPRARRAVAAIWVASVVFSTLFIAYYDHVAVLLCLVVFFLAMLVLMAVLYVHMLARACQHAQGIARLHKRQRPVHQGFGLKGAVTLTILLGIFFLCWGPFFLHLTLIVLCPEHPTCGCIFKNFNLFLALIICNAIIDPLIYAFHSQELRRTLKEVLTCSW
Sequence of Cytochrome P450 3A4 (P08684 whole entry): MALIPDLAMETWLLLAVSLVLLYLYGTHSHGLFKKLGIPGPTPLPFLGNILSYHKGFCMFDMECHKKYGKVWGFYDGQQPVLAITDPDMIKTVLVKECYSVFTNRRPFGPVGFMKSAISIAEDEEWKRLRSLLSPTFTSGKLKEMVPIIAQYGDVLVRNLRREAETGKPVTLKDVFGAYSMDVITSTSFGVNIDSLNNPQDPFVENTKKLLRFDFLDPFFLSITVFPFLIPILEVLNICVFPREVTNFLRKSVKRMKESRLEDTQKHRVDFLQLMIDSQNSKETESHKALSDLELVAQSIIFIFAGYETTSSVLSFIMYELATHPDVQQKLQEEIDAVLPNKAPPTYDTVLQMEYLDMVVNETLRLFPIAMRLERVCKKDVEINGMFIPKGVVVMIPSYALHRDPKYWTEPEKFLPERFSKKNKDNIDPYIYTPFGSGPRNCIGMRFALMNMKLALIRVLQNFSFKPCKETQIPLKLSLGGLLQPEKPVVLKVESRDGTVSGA

Cc1ccc(N2CCN(C(=O)[C@H](C)Cc3ccc(Cl)cc3)CC2)c([C@@H](NC(=O)CCN)C(C)C)c1
Activity [1]: 42% | permeability [2]: 0.3 10^-6 cm/s

Cc1ccc(N2CCN(C(=O)[C@H](C)Cc3ccc(Cl)cc3)CC2)c([C@@H](N)C(C)C)c1
permeability [2]: 5 10^-6 cm/s

Cc1ccc(N2CCN(C(=O)[C@H](C)Cc3ccc(Cl)cc3)CC2)c([C@@H](NC(=O)CCN(C)C)C(C)C)c1
Activity [3]: Active | Tmax [4]: 6 h | Tmax [5]: 0.3 h | AUC [6]: 2860 ng·h/mL | AUC [7]: 8200 ng·h/mL | AUC [8]: 254 ng·h/g | AUC [9]: 1520 ng·h/mL | bioavailability [10]: 19% | Activity [11]: Active | Cmax [12]: 91 ng/g | Cmax [13]: 110 ng/mL | Cmax [14]: 761 ng/mL | AUC [15]: 367 ng·h/g | concentration at 1 h [16]: 20 ng/g | Kp at 1 h [17]: 0.2 | AUC [18]: 3860 ng·h/mL | Tmax [19]: 1.7 h | AUC [20]: 2530 ng·h/mL | Vd [21]: 2 L/kg | AUC [22]: 1400 ng·h/mL | Kp [23]: 0.15 | Activity [24]: Active | pKa [25]: 7.8 | bioavailability [26]: 32% | bioavailability [27]: 43% | Activity [28]: Active | Tmax [29]: 1.8 h | Activity [1]: 50% | Cmax [30]: 262 ng/mL | Cmax [31]: 41 ng/g | Cmax [32]: 946 ng/mL | Tmax [33]: 2.7 h | Activity [34]: Active | Vd [35]: 13 L/kg | Kp at 4 h [36]: 0.4 | Vd [37]: 5.9 L/kg | Vd [38]: 4.1 L/kg | bioavailability [39]: 19% | permeability [2]: 6.2 10^-6 cm/s | AUC [40]: 1410 ng·h/mL | Activity [41]: Active | solubility [42]: > 71 mg/mL | concentration at 4 h [43]: 33 ng/g | Cmax [44]: 279 ng/mL | Tmax [45]: 4.7 h | solubility [46]: 33 mg/mL (≈ 62.6 mM) | Tmax [47]: 0.5 h | AUC [48]: 10300 ng·h/mL

Cc1ccc(N2CCN(C(=O)[C@H](C)Cc3ccc(Cl)cc3C)CC2)c([C@@H](NC(=O)CCN(C)C)C(C)C)c1
Vd [49]: 4.3 L/kg | Kp at 4 h [50]: 0.3 | concentration at 1 h [16]: 9 ng/g | AUC [22]: 1950 ng·h/mL | bioavailability [27]: 5.6% | Cmax [51]: 208 ng/mL | Tmax [52]: 4 h | Kp at 1 h [53]: 0.1 | permeability [2]: 1.9 10^-6 cm/s | concentration at 4 h [43]: 42 ng/g

CNCC(=O)N[C@H](c1cc(C)ccc1N1CCN(C(=O)[C@H](C)Cc2ccc(Cl)cc2F)CC1)C(C)C
Activity [54]: 12% | IC50 [55]: 6.9 µM | permeability [2]: 0.8 10^-6 cm/s

Cc1ccc(N2CCN(C(=O)[C@H](C)Cc3ccc(Cl)cc3C)CC2)c([C@@H](N)C(C)C)c1
Activity [54]: 2%

CNCCC(=O)N[C@H](c1cc(C)ccc1N1CCN(C(=O)[C@H](C)Cc2ccc(Cl)cc2)CC1)C(C)C
Vd [49]: 20 L/kg | concentration at 1 h [16]: < 5 ng/g | AUC [22]: 563 ng·h/mL | bioavailability [27]: 15% | Cmax [51]: 57 ng/mL | Activity [1]: 43% | Tmax [52]: 3.3 h | permeability [2]: 1.2 10^-6 cm/s | concentration at 4 h [43]: < 5 ng/g

CNCCN[C@H](c1cc(C)ccc1N1CCN(C(=O)[C@H](C)Cc2ccc(Cl)cc2F)CC1)C(C)C
Vd [49]: 95 L/kg | concentration at 1 h [16]: < 5 ng/g | Activity [54]: 7% | AUC [22]: 299 ng·h/mL | bioavailability [27]: 13% | Cmax [51]: 22 ng/mL | Tmax [52]: 6 h | permeability [2]: 0.3 10^-6 cm/s | half-life [56]: 17 h | concentration at 4 h [43]: < 5 ng/g | clearance [57]: 60 mL/min/kg

Cc1ccc(N2CCN(C(=O)[C@H](C)Cc3ccc(Cl)cc3F)CC2)c([C@@H](N)C(C)C)c1
Activity [54]: 5%

Cc1ccc(N2CCN(C(=O)[C@H](C)Cc3ccc(Cl)cc3F)CC2)c([C@@H](NC(=O)CCN(C)C)C(C)C)c1
Vd [49]: 4.2 L/kg | concentration at 1 h [16]: 8 ng/g | AUC [22]: 1470 ng·h/mL | bioavailability [27]: 13% | Cmax [51]: 134 ng/mL | Tmax [52]: 4.7 h | concentration at 4 h [43]: 31 ng/g
